In patent US20140135310A1, “SULPHONAMIDE DERIVATIVES OF ALICYCLIC AMINES FOR THE TREATMENT OF CENTRAL NERVOUS SYSTEM DISEASES” (Adamed Sp. z o.o., priority 2011, published 2014):

Experiments:
[1] = molecular target: T1, H1 histaminergic receptors (Homo sapiens, UniProt P35367); assay: Radioligand binding assay, histaminergic H1 receptors; settings: human recombinant (HEK-293 cells), [3H]pyrilamine 1 nM
T1 construct: expressed in transfected cells; host or cells: HEK-293 cells
Procedure, shortened: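 Competition binding at human H1 receptors; specific binding taken as total minus non-specific binding in excess unlabelled ligand, scintillation read-out. IC50 from Hill-equation fit of competition curves; Ki by Cheng-Prusoff using radioligand concentration and Kd (from Scatchard plot).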

[2] = molecular target: dopaminergic receptors D3 (Homo sapiens, UniProt P35462); assay: Radioligand binding assay, dopaminergic D3 receptors; settings: test compound 1×10^−6 M
Procedure, shortened: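 Scintillation read-out. Specific = total − nonspecific (excess cold ligand). Data as % of control specific binding / % inhibition; IC50 by Hill fit; Ki = IC50/(1+L/KD), KD from Scatchard plot.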

[3] = test system: α1 adrenergic receptors (rat cerebral cortex); assay: Radioligand binding assay, adrenergic α1 receptors; settings: test compound 1×10^−6 M
Procedure, shortened: (§1)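 Values derive from radioligand displacement, with non-specific binding defined by excess cold ligand and detection by scintillation. Hill-fit IC50s were converted to Ki via Cheng-Prusoff using Scatchard-derived Kd; percent inhibition of control specific binding also reported.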

[4] = molecular target: T2, M3 muscarinic receptors (Homo sapiens, UniProt P20309); assay: Radioligand binding assay, muscarinic M3 receptors; settings: test compound 1×10^−6 M
T2 construct: expressed in transfected cells; host or cells: CHO cells
Procedure, shortened: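 Radioligand competition binding, detected by scintillation counting; non-specific binding defined with excess unlabelled ligand. Results given as % inhibition of control specific binding; IC50 from Hill-equation fit of competition curves, Ki via Cheng-Prusoff with radioligand KD from Scatchard plot.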

[5] = molecular target: T3, 5-HT1A receptor (rat hippocampus) (Rattus norvegicus, UniProt P19327); assay: Radioligand binding assay, serotoninergic 5-HT1A receptors; settings: binding assay result in %, Table 5a
T3 construct: hippocampus; from tissue; host or cells: rat hippocampus
T3 sequence (P19327 1-422): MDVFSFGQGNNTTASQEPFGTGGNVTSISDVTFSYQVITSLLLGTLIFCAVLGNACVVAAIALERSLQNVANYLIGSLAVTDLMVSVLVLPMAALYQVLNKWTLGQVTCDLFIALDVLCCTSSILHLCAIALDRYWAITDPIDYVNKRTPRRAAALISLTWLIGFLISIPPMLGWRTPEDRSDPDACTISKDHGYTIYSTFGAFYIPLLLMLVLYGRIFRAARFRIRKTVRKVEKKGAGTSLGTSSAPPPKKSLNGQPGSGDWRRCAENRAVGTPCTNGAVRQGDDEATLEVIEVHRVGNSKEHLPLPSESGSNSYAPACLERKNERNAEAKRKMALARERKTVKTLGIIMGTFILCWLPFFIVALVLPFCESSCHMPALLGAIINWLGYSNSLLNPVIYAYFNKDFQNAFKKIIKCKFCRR

[6] = molecular target: T4, 5-HT2A receptor (Homo sapiens, UniProt P28223); assay: Radioligand binding assay, serotoninergic 5-HT2A receptors; settings: for inhibition at 1 µM / 5-HT2A [%]: binding assay result in %, Table 5a
T4 construct: purchased PerkinElmer
Procedure, shortened: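 Competition curves from scintillation-counted specific binding (total minus binding with excess unlabelled ligand) were Hill-fitted to give IC50, converted to Ki via Cheng-Prusoff using Scatchard-derived Kd.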

[7] = test system: σ receptors; assay: Radioligand binding assay, σ receptors; settings: rat cerebral cortex, [3H]DTG 8 nM
Procedure, shortened: as §1

[8] = molecular target: dopaminergic receptors D2 (Homo sapiens, UniProt P14416); assay: Radioligand binding assay, dopaminergic D2 receptors; settings: for inhibition at 1 µM / D2 [%]: binding assay, test compound 1×10^−6 M
Procedure, shortened: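 Values derive from competition curves: percent inhibition of control specific binding was fitted by Hill non-linear regression for IC50, and Ki calculated with Cheng–Prusoff from radioligand concentration and KD (Scatchard). Bound ligand was detected by scintillation counting.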

[9] = molecular target: T5, 5-HT2C receptor (Homo sapiens, UniProt P28335); assay: Radioligand binding assay, serotoninergic 5-HT2C receptors; settings: test compound 1×10^−6 M
T5 construct: expressed in transfected cells; host or cells: HEK-293 cells
T5 sequence (P28335 33-458): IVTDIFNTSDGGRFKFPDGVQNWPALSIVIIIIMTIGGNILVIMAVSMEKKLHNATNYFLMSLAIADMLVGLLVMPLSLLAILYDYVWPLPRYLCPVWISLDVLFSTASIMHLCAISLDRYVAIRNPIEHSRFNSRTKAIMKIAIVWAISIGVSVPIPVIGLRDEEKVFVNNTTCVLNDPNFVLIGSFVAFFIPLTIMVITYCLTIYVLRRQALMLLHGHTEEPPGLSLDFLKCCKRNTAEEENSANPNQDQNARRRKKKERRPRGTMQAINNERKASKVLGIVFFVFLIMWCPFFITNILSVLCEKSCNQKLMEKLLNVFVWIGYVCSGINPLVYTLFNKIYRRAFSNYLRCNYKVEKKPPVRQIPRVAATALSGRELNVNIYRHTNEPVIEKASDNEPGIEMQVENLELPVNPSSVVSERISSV

T4 sequence (P28223 whole entry): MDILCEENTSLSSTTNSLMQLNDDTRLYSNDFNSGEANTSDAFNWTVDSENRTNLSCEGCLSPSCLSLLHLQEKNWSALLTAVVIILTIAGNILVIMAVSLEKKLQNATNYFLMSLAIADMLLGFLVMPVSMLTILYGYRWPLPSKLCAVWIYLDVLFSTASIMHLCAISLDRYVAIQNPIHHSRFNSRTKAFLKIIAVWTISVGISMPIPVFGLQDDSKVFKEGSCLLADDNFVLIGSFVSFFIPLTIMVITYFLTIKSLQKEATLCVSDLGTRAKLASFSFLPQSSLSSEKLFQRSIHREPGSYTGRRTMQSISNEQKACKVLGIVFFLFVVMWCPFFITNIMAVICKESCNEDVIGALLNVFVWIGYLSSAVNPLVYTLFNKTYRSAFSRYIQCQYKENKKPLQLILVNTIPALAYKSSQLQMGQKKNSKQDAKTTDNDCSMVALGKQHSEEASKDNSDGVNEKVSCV
dopaminergic receptors D3, sequence (P35462 whole entry): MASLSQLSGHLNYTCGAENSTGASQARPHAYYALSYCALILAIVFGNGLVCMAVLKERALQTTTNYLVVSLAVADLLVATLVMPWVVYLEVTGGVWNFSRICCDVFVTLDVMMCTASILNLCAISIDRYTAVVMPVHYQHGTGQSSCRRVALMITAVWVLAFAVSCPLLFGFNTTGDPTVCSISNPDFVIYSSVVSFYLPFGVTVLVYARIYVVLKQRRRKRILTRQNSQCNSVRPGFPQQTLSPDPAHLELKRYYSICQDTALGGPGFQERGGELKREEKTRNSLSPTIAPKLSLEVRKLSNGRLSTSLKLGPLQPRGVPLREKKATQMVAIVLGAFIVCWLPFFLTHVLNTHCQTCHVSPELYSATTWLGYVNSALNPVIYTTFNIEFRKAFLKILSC
T2 sequence (P20309 whole entry): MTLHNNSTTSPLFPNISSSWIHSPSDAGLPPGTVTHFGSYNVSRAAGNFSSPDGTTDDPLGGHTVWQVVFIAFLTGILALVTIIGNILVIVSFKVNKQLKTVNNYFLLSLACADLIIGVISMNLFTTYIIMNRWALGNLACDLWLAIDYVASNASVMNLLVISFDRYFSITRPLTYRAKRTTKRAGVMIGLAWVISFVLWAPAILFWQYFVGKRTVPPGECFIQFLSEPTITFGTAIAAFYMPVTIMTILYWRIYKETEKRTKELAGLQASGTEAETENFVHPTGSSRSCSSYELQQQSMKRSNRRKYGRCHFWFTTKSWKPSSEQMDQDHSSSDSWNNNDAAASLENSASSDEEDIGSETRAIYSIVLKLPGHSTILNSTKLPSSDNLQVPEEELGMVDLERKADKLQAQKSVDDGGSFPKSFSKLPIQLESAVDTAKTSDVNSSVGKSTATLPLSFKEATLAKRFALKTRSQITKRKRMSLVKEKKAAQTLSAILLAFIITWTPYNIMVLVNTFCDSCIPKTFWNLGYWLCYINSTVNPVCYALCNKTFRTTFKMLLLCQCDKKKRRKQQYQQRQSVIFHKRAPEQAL
T1 sequence (P35367 whole entry): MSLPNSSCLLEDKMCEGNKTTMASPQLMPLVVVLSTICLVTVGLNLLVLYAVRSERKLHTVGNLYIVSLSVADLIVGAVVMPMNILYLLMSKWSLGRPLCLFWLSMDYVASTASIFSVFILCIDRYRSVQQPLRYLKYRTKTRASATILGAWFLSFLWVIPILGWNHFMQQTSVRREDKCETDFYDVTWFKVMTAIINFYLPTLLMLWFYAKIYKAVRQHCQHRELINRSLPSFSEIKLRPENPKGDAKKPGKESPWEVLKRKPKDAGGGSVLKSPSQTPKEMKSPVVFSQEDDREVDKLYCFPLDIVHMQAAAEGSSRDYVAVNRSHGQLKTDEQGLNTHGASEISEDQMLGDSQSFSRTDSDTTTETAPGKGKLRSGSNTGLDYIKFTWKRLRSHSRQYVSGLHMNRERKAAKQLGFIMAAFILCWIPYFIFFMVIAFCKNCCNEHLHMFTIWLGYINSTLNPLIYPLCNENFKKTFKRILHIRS
dopaminergic receptors D2, sequence (P14416 whole entry): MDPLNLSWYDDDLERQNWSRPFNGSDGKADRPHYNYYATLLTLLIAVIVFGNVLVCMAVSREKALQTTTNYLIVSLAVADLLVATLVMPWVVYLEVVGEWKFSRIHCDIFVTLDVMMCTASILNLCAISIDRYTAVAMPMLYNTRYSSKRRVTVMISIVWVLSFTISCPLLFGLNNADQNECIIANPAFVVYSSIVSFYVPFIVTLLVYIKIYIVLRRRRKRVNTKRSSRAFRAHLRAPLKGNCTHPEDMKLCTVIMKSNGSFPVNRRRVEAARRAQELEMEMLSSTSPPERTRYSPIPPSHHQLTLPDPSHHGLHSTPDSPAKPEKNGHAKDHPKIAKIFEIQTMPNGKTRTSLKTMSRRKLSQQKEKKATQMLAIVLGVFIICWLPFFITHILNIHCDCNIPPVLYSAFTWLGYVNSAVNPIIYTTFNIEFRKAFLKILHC

Compound	inhibition at 1 µM [1] [%]	inhibition at 1 µM [2] [%]	α1 [%] [3] [%]	inhibition at 1 µM [4] [%]	inhibition at 1 µM [5] [%]	inhibition at 1 µM [6] [%]	σ [%] [7] [%]	inhibition at 1 µM [8] [%]	inhibition at 1 µM [9] [%]	H1 [%] [1] [%]	D3 [%] [2] [%]	M3 [%] [4] [%]	5-HT1A [%] [5] [%]	5-HT2A [%] [6] [%]	D2 [%] [8] [%]	5-HT2C [%] [9] [%]	Ki ([6]; read-out: Inhibition constants Ki, 5-HT2A) [nM]	Ki ([8]; read-out: Inhibition constants Ki for D2 receptors, D2) [nM]
O=S(=O)(NC1CCN(CCCc2noc3cc(F)ccc23)C1)c1ccc2ccccc2c1 (stereo not shown) [Compound 21, N-[1-[3-(6-Fluoro-1,2-benzoxazol-3-yl)propyl]pyrrolidin-3-yl]naphthalene-2-sulphonamide]	57	96	95	-11	66	100	60	100	71									
O=S(=O)(NC1CN(CCOc2cccc3[nH]ccc23)C1)c1ccc(F)cc1 [Compound 46, 4-Fluoro-N-[1-[2-(1H-indol-4-yloxy)ethyl]azetidin-3-yl]benzene-sulphonamide]	6	104	85	-13	101	34	15	93	21									
O=S(=O)(NCC1CCN(CCCc2noc3cc(F)ccc23)C1)c1ccc(-c2ccccc2)cc1 (stereo not shown) [Compound 241, N-[[1-[3-(6-Fluoro-1,2-benzoxazol-3-yl)propyl]pyrrolidin-3-yl]methyl]-4-phenyl-benzenesulphonamide]	69	87	62	19	39	97	88	81	66									
O=S(=O)(NC1CCN(CCCc2noc3cc(F)ccc23)C1)c1ccc2cc(Cl)ccc2c1 (stereo not shown) [Compound 23, 6-Chloro-N-[1-[3-(6-fluoro-1,2-benzoxazol-3-yl)propyl]pyrrolidin-3-yl]naphthalene-2-sulphonamide]	60	95	64	10	24	99	61	100	67									
O=S(=O)(NC1CCN(CCOc2cccc3[nH]ccc23)CC1)c1ccccc1 [Compound 55, N-[1-[2-(1H-Indol-4-yloxy)ethyl]-4-piperidine]benzenesulphonamide]			51				37			0	93	−1	96	94	44	30		
Cc1cc(S(=O)(=O)N[C@H]2CCN(CCCc3noc4cc(F)ccc34)C2)c(C)s1 [Compound 223, N-[(3S)-1-[3-(6-Fluoro-1,2-benzoxazol-3-yl)propyl]pyrrolidin-3-yl]-2,5-dimethyl-thiophene-3-sulphonamide]	52	57	86	25	49	99	89	89	65									
N-[[1-[2-[(2,2-Dimethyl-3H-benzofuran-7-yl)oxy]ethyl]azetidin-3-yl]methyl]-3-hydroxy-benzenesulphonamide [Compound 111]			68				81			38	87	14	99	92	97	87		
COc1ccc2cc(S(=O)(=O)N[C@H]3CCN(CCCc4noc5cc(F)ccc45)C3)ccc2c1 [Compound 231, N-[(3S)-1-[3-(6-Fluoro-1,2-benzoxazol-3-yl)propyl]pyrrolidin-3-yl]-6-methoxy-naphthalene-2-sulphonamide]	54	91	79	22	34		87	95	75								1.9	6.4
Cc1cc(S(=O)(=O)NCC2CCN(CCOc3cccc4c3OCCO4)C2)c(C)s1 (stereo not shown) [Compound 312, N-[[1-[2-(2,3-Dihydro-1,4-benzodioxin-5-yloxy)ethyl]pyrrolidin-3-yl]methyl]-2,5-dimethylthiophene-3-sulphonamide]	35	36	65	10	98	87	92	36	55									
Cc1cc(S(=O)(=O)N[C@@H]2CCN(CCCc3noc4cc(F)ccc34)C2)c(C)s1 [Compound 222, N-[(3R)-1-[3-(6-Fluoro-1,2-benzoxazol-3-yl)propyl]pyrrolidin-3-yl]-2,5-dimethyl-thiophene-3-sulphonamide]	79	74	92	18	72	99	95	97	65									
O=S(=O)(NC1CCN(CCCc2noc3cc(F)ccc23)C1)c1cc2ccccc2s1 (stereo not shown) [Compound 25, N-[1-[3-(6-Fluoro-1,2-benzoxazol-3-yl)propyl]pyrrolidin-3-yl]-benzothiophene-2-sulphonamide]	75	97	85	23	74	102	70	98	83									
O=S(=O)(NC1CCN(CCCc2noc3cc(F)ccc23)C1)c1ccc(Cl)c(F)c1 (stereo not shown) [Compound 11, 4-Chloro-3-fluoro-N-[1-[3-(6-fluoro-1,2-benzoxazol-3-yl)propyl]-pyrrolidin-3-yl]benzene-sulphonamide]	37	49	70	3	60	100	74	89	27									
O=S(=O)(NCC1CN(CCOc2cccc3c2OCCO3)C1)c1ccc(Cl)c(Cl)c1 [Compound 183, 3,4-Dichloro-N-[[1-[2-(2,3-dihydro-1,4-benzodioxin-5-yloxy)ethyl]azetidin-3-yl]methyl]benzenesulphonamide]	42	79	85	13	98	94	94	92	98									
O=S(=O)(NC1CCN(CCCc2c[nH]c3ccc(F)cc23)C1)c1ccc(F)cc1 (stereo not shown) [Compound 75, 4-Fluoro-N-[1-[3-(5-fluoro-1H-indol-3-yl)propyl]pyrrolidin-3-yl]benzene-sulphonamide]	57	86	45	17	100	90	75	91	83									
